Measurements from ChEMBL document CHEMBL1137563, “3,5-bis(3'-indolyl)pyrazoles, analogues of marine alkaloid nortopsentin: synthesis and antitumor properties” (2007).
The source made the active and inactive calls. No cut-off for these calls is given here.

How the values were obtained:
[1] = molecular target: DNA topoisomerase 2-alpha (Homo sapiens) (UniProt P11388); assay: Inhibition of human recombinant topoisomerase 2-mediated relaxation of supercoiled plasmid pBR322 DNA at 8 uM
[2] = Antitumor activity against HL60(TB) cells; type: functional, HL-60(TB); conditions: Homo sapiens, HL-60
SF-539 = assay: Antitumor activity against SF539 cells; type: functional; conditions: Homo sapiens
A498 = assay: Antitumor activity against A498 cells; type: functional; conditions: Homo sapiens
HOP-62 = assay: Antitumor activity against HOP62 cells; type: functional; conditions: Homo sapiens
CAKI-1 = assay: Antitumor activity against CAKI1 cells; type: functional; conditions: Homo sapiens
UACC-62 = assay: Antitumor activity against UACC62 cells; type: functional; conditions: Homo sapiens
Hs-578T = assay: Antitumor activity against HS578T cells; type: functional; conditions: Homo sapiens
OVCAR-3 = assay: Antitumor activity against OVCAR-3 cells; type: functional; conditions: Homo sapiens
LOX IMVI = assay: Antitumor activity against LOX-IMVI cells; type: functional; conditions: Homo sapiens
EKVX = assay: Antitumor activity against EKVX cells; type: functional; conditions: Homo sapiens
CCRF-CEM = assay: Antitumor activity against CCRF-CEM cells; type: functional; conditions: Homo sapiens
NCI/ADR-RES = assay: Antitumor activity against NCI/ADRRES cells; type: functional; conditions: Homo sapiens
TK-10 = assay: Antitumor activity against TK10 cells; type: functional; conditions: Homo sapiens
SF-268 = assay: Antitumor activity against SF268 cells; type: functional; conditions: Homo sapiens
NCI-H226 = assay: Antitumor activity against NCI-H226 cells; type: functional; conditions: Homo sapiens
M14 = assay: Antitumor activity against M14 cells; type: functional; conditions: Homo sapiens
UACC-257 = assay: Antitumor activity against UACC257 cells; type: functional; conditions: Homo sapiens
HCT-116 = assay: Antitumor activity against HCT116 cells; type: functional; conditions: Homo sapiens
RXF 393 = assay: Antitumor activity against RXF393 cells; type: functional; conditions: Homo sapiens
HCC 2998 = assay: Antitumor activity against HCC2998 cells; type: functional; conditions: Homo sapiens
MOLT-4 = assay: Antitumor activity against MOLT4 cells; type: functional; conditions: Homo sapiens
KM12 = assay: Antitumor activity against KM12 cells; type: functional; conditions: Homo sapiens
COLO 205 = assay: Antitumor activity against COLO205 cells; type: functional; conditions: Homo sapiens
NCI-H322M = assay: Antitumor activity against NCI-H322M cells; type: functional; conditions: Homo sapiens
[3] = molecular target: DNA topoisomerase 2-alpha (Homo sapiens) (UniProt P11388); assay: Inhibition of human recombinant topoisomerase 2-mediated relaxation of supercoiled plasmid pBR322 DNA at 100 uM
NCI-H522 = assay: Antitumor activity against NCI-H522 cells; type: functional; conditions: Homo sapiens
SK-MEL-2 = assay: Antitumor activity against SK-MEL-2 cells; type: functional; conditions: Homo sapiens
Malme-3M = assay: Antitumor activity against MALME-3M cells; type: functional; conditions: Homo sapiens
U-251 = assay: Antitumor activity against U251 cells; type: functional; conditions: Homo sapiens
OVCAR-5 = assay: Antitumor activity against OVCAR5 cells; type: functional; conditions: Homo sapiens
SNB-75 = assay: Antitumor activity against SNB75 cells; type: functional; conditions: Homo sapiens
DU-145 = assay: Antitumor activity against DU145 cells; type: functional; conditions: Homo sapiens
SF-295 = assay: Antitumor activity against SF295 cells; type: functional; conditions: Homo sapiens
RPMI-8226 = assay: Antitumor activity against RPMI8226 cells; type: functional; conditions: Homo sapiens
MDA-MB-231 = assay: Antitumor activity against MDA-MB-231 cells; type: functional; conditions: Homo sapiens
OVCAR-4 = assay: Antitumor activity against OVCAR4 cells; type: functional; conditions: Homo sapiens
SNB-19 = assay: Antitumor activity against SNB19 cells; type: functional; conditions: Homo sapiens
A549 = assay: Antitumor activity against A549 cells; type: functional; conditions: Homo sapiens
BT-549 = assay: Antitumor activity against BT549 cells; type: functional; conditions: Homo sapiens
NCI-H23 = assay: Antitumor activity against NCI-H23 cells; type: functional; conditions: Homo sapiens
OVCAR-8 = assay: Antitumor activity against OVCAR8 cells; type: functional; conditions: Homo sapiens
ACHN = assay: Antitumor activity against ACHN cells; type: functional; conditions: Homo sapiens
SK-OV-3 = assay: Antitumor activity against SKOV3 cells; type: functional; conditions: Homo sapiens
SK-MEL-5 = assay: Antitumor activity against SK-MEL-5 cells; type: functional; conditions: Homo sapiens
HOP-92 = assay: Antitumor activity against HOP92 cells; type: functional; conditions: Homo sapiens
K562 = assay: Antitumor activity against K562 cells; type: functional; conditions: Homo sapiens
MCF7 = assay: Antitumor activity against MCF7 cells; type: functional; conditions: Homo sapiens
NCI-H460 = assay: Antitumor activity against NCI-H460 cells; type: functional; conditions: Homo sapiens
HCT-15 = assay: Antitumor activity against HCT15 cells; type: functional; conditions: Homo sapiens
UO-31 = assay: Antitumor activity against UO31 cells; type: functional; conditions: Homo sapiens
SW-620 = assay: Antitumor activity against SW620 cells; type: functional; conditions: Homo sapiens
SK-MEL-28 = assay: Antitumor activity against SK-MEL-28 cells; type: functional; conditions: Homo sapiens
T47D = assay: Antitumor activity against T47D cells; type: functional; conditions: Homo sapiens
HT-29 = assay: Antitumor activity against HT29 cells; type: functional; conditions: Homo sapiens
PC-3 = assay: Antitumor activity against PC3 cells; type: functional; conditions: Homo sapiens
SR = assay: Antitumor activity against SR cells; type: functional; conditions: Homo sapiens
786-0 = assay: Antitumor activity against 7860 cells; type: functional; conditions: Homo sapiens
IGROV-1 = assay: Antitumor activity against IGROV1 cells; type: functional; conditions: Homo sapiens
MDA-MB-435 = assay: Antitumor activity against MDA-MB-435 cells; type: functional; conditions: Homo sapiens
SN12C = assay: Antitumor activity against SN12C cells; type: functional; conditions: Homo sapiens
[4] = molecular target: DNA topoisomerase 2-alpha (Homo sapiens) (UniProt P11388); assay: Inhibition of human recombinant topoisomerase 2-mediated relaxation of supercoiled plasmid pBR322 DNA at 50 uM
[5] = read-out: LC50 (the source's name)

Chain of DNA topoisomerase 2-alpha (Homo sapiens) (P11388 whole entry): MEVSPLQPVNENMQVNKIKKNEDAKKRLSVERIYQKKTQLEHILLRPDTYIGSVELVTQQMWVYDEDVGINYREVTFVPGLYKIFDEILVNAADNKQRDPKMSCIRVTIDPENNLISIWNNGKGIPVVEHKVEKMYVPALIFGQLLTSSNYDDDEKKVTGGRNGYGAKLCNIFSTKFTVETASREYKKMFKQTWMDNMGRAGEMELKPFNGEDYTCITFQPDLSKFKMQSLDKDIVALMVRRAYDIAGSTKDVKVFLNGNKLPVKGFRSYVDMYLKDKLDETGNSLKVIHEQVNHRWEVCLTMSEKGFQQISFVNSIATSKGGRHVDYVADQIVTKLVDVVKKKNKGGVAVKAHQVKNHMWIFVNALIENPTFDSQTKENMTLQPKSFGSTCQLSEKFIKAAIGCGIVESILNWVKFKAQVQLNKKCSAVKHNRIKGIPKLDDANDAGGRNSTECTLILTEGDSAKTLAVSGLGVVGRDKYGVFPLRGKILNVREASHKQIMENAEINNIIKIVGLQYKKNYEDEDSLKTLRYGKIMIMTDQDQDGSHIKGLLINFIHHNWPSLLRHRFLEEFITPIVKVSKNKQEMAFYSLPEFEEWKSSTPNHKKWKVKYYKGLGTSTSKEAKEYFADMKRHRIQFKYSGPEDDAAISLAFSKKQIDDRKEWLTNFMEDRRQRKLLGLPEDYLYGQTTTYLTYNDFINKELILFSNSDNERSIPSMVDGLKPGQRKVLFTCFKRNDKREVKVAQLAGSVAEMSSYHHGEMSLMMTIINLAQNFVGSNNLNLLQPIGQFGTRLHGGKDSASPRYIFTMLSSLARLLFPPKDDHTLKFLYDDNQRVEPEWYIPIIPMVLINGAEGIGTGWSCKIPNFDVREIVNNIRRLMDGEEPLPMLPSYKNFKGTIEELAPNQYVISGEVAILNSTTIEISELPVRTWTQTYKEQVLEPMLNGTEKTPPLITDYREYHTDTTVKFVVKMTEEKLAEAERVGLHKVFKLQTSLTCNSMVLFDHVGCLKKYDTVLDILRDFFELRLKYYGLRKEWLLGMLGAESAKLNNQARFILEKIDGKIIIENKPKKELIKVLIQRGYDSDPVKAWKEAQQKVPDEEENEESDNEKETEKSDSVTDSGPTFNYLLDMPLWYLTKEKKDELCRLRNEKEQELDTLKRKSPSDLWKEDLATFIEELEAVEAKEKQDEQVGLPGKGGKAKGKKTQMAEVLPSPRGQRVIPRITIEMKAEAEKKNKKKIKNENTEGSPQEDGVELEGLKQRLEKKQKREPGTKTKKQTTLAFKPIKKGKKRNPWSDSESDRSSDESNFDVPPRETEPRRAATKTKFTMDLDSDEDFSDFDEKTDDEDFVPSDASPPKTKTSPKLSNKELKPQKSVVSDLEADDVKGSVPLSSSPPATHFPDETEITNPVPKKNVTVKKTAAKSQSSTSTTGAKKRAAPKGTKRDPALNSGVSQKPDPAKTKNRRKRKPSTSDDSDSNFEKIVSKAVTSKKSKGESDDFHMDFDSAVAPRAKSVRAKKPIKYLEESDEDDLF

For `COc1cc(NS(C)(=O)=O)ccc1Nc1c2ccccc2nc2ccccc12`, the Activity [1] was “Active”.

Work on `Cn1cc(-c2cc(-c3cn(C)c4ccc(Cl)cc34)[nH]n2)c2cc(Cl)ccc21` yielded a GI50 [2] of 4.45 µM, a GI50 (SF-539) of 1.81 µM and a TGI (SF-539) of 3.47 µM. The CC50 (SF-539; [5]) was 6.62 µM, the GI50 (A498) was 2.44 µM and the GI50 (HOP-62) was 7.98 µM. For the same compound, the GI50 (CAKI-1) was 1.7 µM, the GI50 (UACC-62) was 1.63 µM and the GI50 (Hs-578T) was 3.27 µM. It also gave a GI50 (OVCAR-3) of 4.41 µM, a GI50 (LOX IMVI) of 1.7 µM and a TGI (LOX IMVI) of 3.8 µM. For the same compound, the CC50 (LOX IMVI; [5]) was 8.53 µM, the GI50 (EKVX) was 3.15 µM and the GI50 (CCRF-CEM) was 6.4 µM. It also gave a GI50 (NCI/ADR-RES) of 2.25 µM, a GI50 (TK-10) of 5.16 µM and a GI50 (SF-268) of 5.29 µM. It also gave a GI50 (NCI-H226) of 5.29 µM, a GI50 (M14) of 2.15 µM and a GI50 (UACC-257) of 4.27 µM. The GI50 (HCT-116) was 3.82 µM, the GI50 (RXF 393) was 3.03 µM and the GI50 (HCC 2998) was 1.71 µM. The TGI (HCC 2998) was 3.84 µM, the CC50 (HCC 2998; [5]) was 8.63 µM and the GI50 (MOLT-4) was 1.55 µM. It also gave a GI50 (KM12) of 3.45 µM, a GI50 (COLO 205) of 2.22 µM and a GI50 (NCI-H322M) of 5.73 µM. The Activity [3] was “Active”, the GI50 (NCI-H522) was 1.75 µM and the GI50 (SK-MEL-2) was 2.34 µM. For the same compound, the GI50 (Malme-3M) was 9.64 µM, the GI50 (U-251) was 3.37 µM and the GI50 (OVCAR-5) was 3.11 µM. It also gave a GI50 (SNB-75) of 4.25 µM, a GI50 (DU-145) of 9.6 µM and a GI50 (SF-295) of 2.52 µM. It also gave a GI50 (RPMI-8226) of 6.79 µM, a GI50 (MDA-MB-231) of 2.95 µM and a GI50 (OVCAR-4) of 5.82 µM. For the same compound, the GI50 (SNB-19) was 4.09 µM, the GI50 (A549) was 3.24 µM and the GI50 (BT-549) was 2.03 µM. For the same compound, the GI50 (NCI-H23) was 2.49 µM, the GI50 (OVCAR-8) was 4.03 µM and the GI50 (ACHN) was 3.23 µM. It also gave a GI50 (SK-OV-3) of 5.81 µM, a GI50 (SK-MEL-5) of 1.79 µM and a GI50 (HOP-92) of 1.86 µM. The GI50 (K562) was 2.78 µM, the GI50 (MCF7) was 2.64 µM and the GI50 (NCI-H460) was 2.35 µM. For the same compound, the GI50 (HCT-15) was 3.01 µM, the GI50 (UO-31) was 3.01 µM and the GI50 (SW-620) was 3.52 µM. It also gave a GI50 (SK-MEL-28) of 4.8 µM, a GI50 (T47D) of 4.06 µM and a GI50 (HT-29) of 3.57 µM. The GI50 (PC-3) was 3.05 µM, the GI50 (SR) was 2.36 µM and the GI50 (786-0) was 3.41 µM. For the same compound, the GI50 (IGROV-1) was 2.55 µM and the GI50 (MDA-MB-435) was 2.99 µM.

In the case of `Cn1cc(-c2cc(-c3cn(C)c4ccccc34)[nH]n2)c2ccccc21`, the GI50 [2] is reported as 15.4 µM, the GI50 (SF-539) is reported as 16.2 µM and the GI50 (A498) is reported as 19.6 µM. The GI50 (HOP-62) was 17.3 µM, the GI50 (CAKI-1) was over 100 µM and the GI50 (UACC-62) was 16.4 µM. The GI50 (Hs-578T) was 18.5 µM, the GI50 (OVCAR-3) was 28.4 µM and the GI50 (LOX IMVI) was 5.38 µM. For the same compound, the GI50 (EKVX) was 27.2 µM, the GI50 (CCRF-CEM) was 14.4 µM and the GI50 (NCI/ADR-RES) was 27.6 µM. For the same compound, the GI50 (TK-10) was 37.4 µM, the GI50 (SF-268) was 16 µM and the GI50 (NCI-H226) was 19.8 µM. The GI50 (M14) was over 100 µM, the GI50 (UACC-257) was 80.6 µM and the GI50 (HCT-116) was 19 µM. For the same compound, the GI50 (RXF 393) was 14.7 µM, the GI50 (HCC 2998) was 4.74 µM and the GI50 (MOLT-4) was 4.75 µM. The GI50 (KM12) was 4.58 µM, the GI50 (COLO 205) was 7.98 µM and the GI50 (NCI-H322M) was over 100 µM. It also gave a GI50 (NCI-H522) of 22.1 µM, a GI50 (SK-MEL-2) of 57.5 µM and a GI50 (Malme-3M) of 93.1 µM. For the same compound, the GI50 (SN12C) was 1.95 µM, the GI50 (U-251) was 12.9 µM and the GI50 (OVCAR-5) was over 100 µM. For the same compound, the GI50 (SNB-75) was 18.4 µM, the GI50 (DU-145) was 15.6 µM and the GI50 (SF-295) was 17.1 µM. It also gave a GI50 (RPMI-8226) of 37.8 µM, a GI50 (MDA-MB-231) of 8.06 µM and a GI50 (OVCAR-4) of 34.9 µM. It also gave a GI50 (SNB-19) of 27 µM, a GI50 (A549) of 16.3 µM and a GI50 (BT-549) of 15.9 µM. The GI50 (NCI-H23) was 22 µM, the GI50 (OVCAR-8) was 28.8 µM and the GI50 (ACHN) was 7.67 µM. The GI50 (SK-OV-3) was 31.6 µM, the GI50 (SK-MEL-5) was 13.1 µM and the GI50 (HOP-92) was 2.06 µM. For the same compound, the GI50 (K562) was 42.1 µM, the GI50 (MCF7) was 3.95 µM and the GI50 (NCI-H460) was 4.48 µM. The GI50 (HCT-15) was 8.68 µM, the GI50 (UO-31) was 37.6 µM and the Activity [4] was “Active”. For the same compound, the GI50 (SW-620) was over 100 µM, the GI50 (SK-MEL-28) was over 100 µM and the GI50 (T47D) was 79.7 µM. The GI50 (HT-29) was 5.35 µM, the GI50 (PC-3) was 8.11 µM and the GI50 (SR) was 3.46 µM. It also gave a GI50 (786-0) of 14.1 µM and a GI50 (IGROV-1) of 8.9 µM.
